From ChEMBL document CHEMBL1132521, “Synthesis and hypoglycemic effect of chrysin derivatives” (Bioorg Med Chem Lett, 1999)

Columns and labels:
[1] = test system: Mus musculus; assay: In vivo hypoglycemic activity after administration (50 mg/kg) in mice on day 0 was determined; format: functional
[2] = test system: Mus musculus; assay: In vivo hypoglycemic activity after administration (50 mg/kg) in mice on day 7 was determined; format: functional
[3] = Ratio of hypoglycemic activity in mice was tested on day 7.; format: functional
[4] = test system: Mus musculus; assay: In vivo hypoglycemic activity after administration (45 mg/kg) in mice on day 0 was determined; format: functional
[5] = test system: Mus musculus; assay: In vivo hypoglycemic activity after administration (45 mg/kg) in mice on day 7 was determined; format: functional
[6] = test system: Mus musculus; assay: In vivo hypoglycemic activity after administration (40 mg/kg) in mice on day 0 was determined; format: functional
[7] = test system: Mus musculus; assay: In vivo hypoglycemic activity after administration (40 mg/kg) in mice on day 7 was determined; format: functional
[8] = test system: Mus musculus; assay: Abnormal symptoms was determined in mouse after oral administration of 100 mg/kg; - sign indicates abnormal symptoms in treated mouse; format: functional, organism-based; design: dose 100 mg/kg
[9] = test system: Mus musculus; assay: Abnormal symptoms was determined in mouse after oral administration of 20 mg/kg; - sign indicates abnormal symptoms in treated mouse; format: functional, organism-based; design: dose 20 mg/kg
[10] = test system: Mus musculus; assay: Abnormal symptoms was determined in mouse after oral administration of 500 mg/kg; - sign indicates abnormal symptoms in treated mouse; format: functional, organism-based; design: dose 500 mg/kg
[11] = test system: Mus musculus; assay: Abnormal symptoms was determined in mouse after oral administration of 5 mg/kg; - sign indicates abnormal symptoms in treated mouse; format: functional, organism-based; design: dose 5 mg/kg
[12] = test system: Mus musculus; assay: Body weight was determined in mouse after oral administration of 500 mg/kg on day 0; format: functional
[13] = test system: Mus musculus; assay: Body weight was determined in mouse after oral administration of 500 mg/kg on day 7; format: functional
[14] = test system: Mus musculus; assay: Body weight was determined in mouse after oral administration of 5 mg/kg on day 0; format: functional
[15] = test system: Mus musculus; assay: Body weight was determined in mouse after oral administration of 5 mg/kg on day 7; format: functional
[16] = test system: Mus musculus; assay: Body weight was determined in mouse after oral administration of 100 mg/kg on day 0; format: functional
[17] = test system: Mus musculus; assay: Body weight was determined in mouse after oral administration of 100 mg/kg on day 7; format: functional
[18] = test system: Mus musculus; assay: Body weight was determined in mouse after oral administration of 20 mg/kg on day 0; format: functional
[19] = test system: Mus musculus; assay: Body weight was determined in mouse after oral administration of 20 mg/kg on day 7; format: functional
[20] = test system: Mus musculus; assay: Daily food consumption was determined in mouse after oral administration of 100 mg/kg; format: functional
[21] = test system: Mus musculus; assay: Daily food consumption was determined in mouse after oral administration of 20 mg/kg; format: functional
[22] = test system: Mus musculus; assay: Daily food consumption was determined in mouse after oral administration of 500 mg/kg; format: functional
[23] = test system: Mus musculus; assay: Daily water consumption was determined in mouse after oral administration of 100 mg/kg; format: functional
[24] = test system: Mus musculus; assay: Daily water consumption was determined in mouse after oral administration of 20 mg/kg; format: functional
[25] = test system: Mus musculus; assay: Daily water consumption was determined in mouse after oral administration of 500 mg/kg; format: functional
[26] = test system: Mus musculus; assay: Daily water consumption was determined in mouse after oral administration of 5 mg/kg; format: functional
[27] = test system: Rattus norvegicus; assay: Abnormal symptoms was determined in rat after oral administration of 500 mg/kg; - sign indicates abnormal symptoms in treated mouse; format: functional, organism-based; design: dose 500 mg/kg
[28] = test system: Rattus norvegicus; assay: Body weight was determined in rat after oral administration of 500 mg/kg on day 0; format: functional
[29] = test system: Rattus norvegicus; assay: Body weight was determined in rat after oral administration of 500 mg/kg on day 7; format: functional
[30] = test system: Rattus norvegicus; assay: Daily food consumption was determined in rat after oral administration of 500 mg/kg; format: functional
[31] = test system: Rattus norvegicus; assay: Kidney weight was determined in rat after oral administration of 500 mg/kg; format: functional
[32] = test system: Rattus norvegicus; assay: Liver weight was determined in rat after oral administration of 500 mg/kg; format: functional; design: unit not given beside the values
[33] = test system: Rattus norvegicus; assay: Lung weight was determined in rat after oral administration of 500 mg/kg; format: functional; design: unit not given beside the values
[34] = test system: Mus musculus; assay: Daily food consumption was determined in mouse after oral administration of 5 mg/kg; format: functional
[35] = test system: Rattus norvegicus; assay: Spleen weight was determined in rat after oral administration of 500 mg/kg; format: functional; design: unit not given beside the values
[36] = test system: Rattus norvegicus; assay: Daily water consumption was determined in rat after oral administration of 500 mg/kg; format: functional
[37] = test system: Mus musculus; assay: In vivo hypoglycemic activity after administration (42 mg/kg) in mice on day 0 was determined; format: functional
[38] = test system: Mus musculus; assay: In vivo hypoglycemic activity after administration (42 mg/kg) in mice on day 7 was determined; format: functional

For O=C(/C=C/c1ccccc1)Oc1cc(O)c2c(=O)cc(-c3ccccc3)oc2c1, the Blood glucose [1] was 440.6 mg/dL, the Blood glucose [2] was 407.9 mg/dL and the Ratio [3] was 92.6.
Work on CCOc1cc(OCC)c2c(=O)cc(-c3ccccc3)oc2c1 yielded a Blood glucose [4] of 436.6 mg/dL, a Blood glucose [5] of 400.5 mg/dL and a Ratio [3] of 91.7.
In the case of COc1cc(O)c2c(=O)cc(-c3ccccc3)oc2c1 [TECHTOCHRYSIN], the Blood glucose [1] is reported as 455 mg/dL, the Blood glucose [2] is reported as 399.6 mg/dL and the Ratio [3] is reported as 87.8.
With Cc1ccc(C(=O)Oc2cc(O)c3c(=O)cc(-c4ccccc4)oc3c2)cc1 the Blood glucose [6] was 464.3 mg/dL, the Blood glucose [7] was 261.8 mg/dL and the Activity [8] was “abnormal symptoms in treated mouse”. For the same molecule, the Activity [9] was “abnormal symptoms in treated mouse”, the Activity [10] was “abnormal symptoms in treated mouse” and the Activity [11] was “abnormal symptoms in treated mouse”. It also gave a Body weight [12] of 24.8, a Body weight [13] of 31.2 and a Body weight [14] of 25.1. For the same molecule, the Body weight [15] was 32.2, the Body weight [16] was 25.2 and the Body weight [17] was 31.6. For the same molecule, the Body weight [18] was 24.7, the Body weight [19] was 31.4 and the Food intake [20] was 50.78 g. The Food intake [21] was 50.6 g, the Food intake [22] was 49.86 g and the Water consumption [23] was 83.75 mL. It also gave a Water consumption [24] of 80.75 mL, a Water consumption [25] of 82.08 mL and a Water consumption [26] of 80.42 mL. For the same molecule, the Activity [27] was “abnormal symptoms in treated mouse”, the Body weight [28] was 237.5 and the Body weight [29] was 302.5. For the same molecule, the Food intake [30] was 112.83 g, the Organ weight [31] was 0.98 and the Organ weight [32] was 9.6. The Organ weight [33] was 1.26, the Ratio [3] was 56.4 and the Food intake [34] was 49.35 g. For the same molecule, the Organ weight [35] was 0.66 and the Water consumption [36] was 216.83 mL.
In the case of CCCOc1cc(O)c2c(=O)cc(-c3ccccc3)oc2c1, the Blood glucose [1] is reported as 400 mg/dL, the Blood glucose [2] is reported as 237.8 mg/dL and the Ratio [3] is reported as 59.5.
With COc1ccc(/C=C/C(=O)Oc2cc(O)c3c(=O)cc(-c4ccccc4)oc3c2)cc1 the Blood glucose [6] was 475.9 mg/dL, the Blood glucose [7] was 333.3 mg/dL and the Ratio [3] was 70.
For CCCOc1cc(OCCC)c2c(=O)cc(-c3ccccc3)oc2c1, the Blood glucose [37] was 448.3 mg/dL, the Blood glucose [38] was 287 mg/dL and the Activity [8] was “abnormal symptoms in treated mouse”. For the same molecule, the Activity [9] was “abnormal symptoms in treated mouse”, the Activity [10] was “abnormal symptoms in treated mouse” and the Activity [11] was “abnormal symptoms in treated mouse”. For the same molecule, the Body weight [12] was 22.7, the Body weight [13] was 29.5 and the Body weight [14] was 22.3. For the same molecule, the Body weight [15] was 28.2, the Body weight [16] was 25.2 and the Body weight [17] was 32.1. For the same molecule, the Body weight [18] was 25.3, the Body weight [19] was 31.9 and the Food intake [20] was 49.77 g. It also gave a Food intake [21] of 53.2 g, a Food intake [22] of 49.87 g and a Water consumption [23] of 81.75 mL. For the same molecule, the Water consumption [24] was 80.92 mL, the Water consumption [25] was 81.75 mL and the Water consumption [26] was 80 mL. For the same molecule, the Activity [27] was “abnormal symptoms in treated mouse”, the Body weight [28] was 235.8 and the Body weight [29] was 300.8. For the same molecule, the Food intake [30] was 115.41 g, the Organ weight [31] was 0.97 and the Organ weight [32] was 9.64. The Organ weight [33] was 1.23, the Ratio [3] was 64 and the Food intake [34] was 48.09 g. For the same molecule, the Organ weight [35] was 0.61 and the Water consumption [36] was 218.5 mL.
In the case of O=C(Oc1cc(O)c2c(=O)cc(-c3ccccc3)oc2c1)c1ccc(F)cc1, the Blood glucose [6] is reported as 458.2 mg/dL, the Blood glucose [7] is reported as 362.5 mg/dL and the Ratio [3] is reported as 79.3.
For COc1cc(OC)c2c(=O)cc(-c3ccccc3)oc2c1 [CHRYSIN DIMETHYL ETHER], the Blood glucose [6] was 444.4 mg/dL, the Blood glucose [7] was 399.5 mg/dL and the Ratio [3] was 89.9.
